From patent publication US20180057530A1, “CYCLIC PEPTIDE COMPOUND, AND PREPARATION AND USE THEREOF” (Zhejiang Hisun Pharmaceutical Co., Ltd., priority 2015, published 2018)
Several values for one entry are separate records, joined by “and”; a condition that tells them apart may be missing. Equal entries are not always repeated. Marks after values point to notes of the source that are not given here.

Assays:
[1] = tested on: Human breast cancer cells (MDA-MB-231); experiment: MTT tumor cell growth inhibition, MDA-MB-231; assay type: cell-based; details: MDA-MB-231, MTT, 72 hours, relative IC50
From the text: (§1) The tetrazolium salt (MTT) reduction method was used to test the activity of the compounds of the present invention. Human breast cancer cells (MDA-MB-231) (CAS cell library; catalog number: TCHu227), human lung cancer cells (A549) (ATCC® Number: CRM-CCL-185™), human colon cancer cells (HCT-116) (CAS cell library; catalog number: TCHu99), acute monocytic leukemia cells (MV4-11) (ATCC® Number: CRL-9591™), tissue cell lymphoma cells (U-937) (CAS cell library; catalog number: TCHu159), human acute promyelocytic leukemia cells (HL-60) (ATCC® Number: CCL-240™), chronic myelogenous leukemia cells (of K562) (CAS cell library; catalog number: TCHu191), human hepatocellular carcinoma cells (BEL-7404) (CAS cell library; catalog number: TCHu64), human pancreatic cancer cells (BxPC3) (ATCC® Number: […])) and human prostate cancer cells (PC-3) (ATCC®Number: […]) were inoculated in 96-well plates, 90 μL/well, with 3000 to 8000 cells in respective well; in the first row of plate, 100 μL/well culture medium was added; the 96-well plate was pre-incubated in an incubator at 37° C., 5% CO2, and 100% relative humidity for 24 hours.
(§2) A compound was weighed and configured to a 10 mM/L stock solution, and the compound was diluted three-fold sequentially from the highest concentration of 2 millimoles (mM); 95 μl the corresponding cell medium was added to each well of a V-bottom dispensing plate; 5 μl of the compound on a 200× plate was transferred to a 10× dispensing plate according to the concentration; 5 μl of dimethylsulfoxide (DMSO) was evenly mixed in the corresponding 95 μl cell culture medium as a vehicle control. 10 μl of the compound-medium in each well of the 10× dispensing plate was added to a 96-well plate already plated with cells. […]
(§3) After the compound for cells was treated for 72 hours, 20 microliters of 5 mg/ml MTT was added to each well; all the steps need to be aseptic. […] The absorbance at 490 nm was read on a SpectraMax M2e instrument. The compound activity (relative IC50) was calculated using GraphPad Prism software.

[2] = tested on: human lung cancer cells (A549); experiment: MTT tumor cell growth inhibition, A549; assay type: cell-based; details: 72 hours, relative IC50
From the text: as §1, §2, §3

[3] = tested on: human colon cancer cells (HCT-116); experiment: MTT tumor cell growth inhibition, HCT-116; assay type: cell-based; details: HCT-116, MTT, 72 hours, relative IC50
From the text: as §1, §2, §3

[4] = tested on: acute monocytic leukemia cells (MV4-11); experiment: MTT tumor cell growth inhibition, MV4-11; assay type: cell-based; details: Homo sapiens; MV4-11, MTT, 72 hours, relative IC50
From the text: as §1, §2, §3

[5] = tested on: tissue cell lymphoma cells (U-937); experiment: MTT tumor cell growth inhibition, U-937; assay type: cell-based; details: Homo sapiens; U-937, MTT, 72 hours, relative IC50
From the text: as §1, §2, §3

[6] = tested on: human acute promyelocytic leukemia cells (HL-60); experiment: MTT tumor cell growth inhibition, HL-60; assay type: cell-based; details: HL-60, MTT, 72 hours, relative IC50
From the text: as §1, §2, §3

[7] = tested on: chronic myelogenous leukemia cells (K562); experiment: MTT tumor cell growth inhibition, K562; assay type: cell-based; details: Homo sapiens, 72 hours, relative IC50
From the text: as §1, §2, §3

[8] = tested on: human hepatocellular carcinoma cells (BEL-7404); experiment: MTT tumor cell growth inhibition, BEL-7404; assay type: cell-based; details: BEL-7404, MTT, 72 hours, relative IC50
From the text: as §1, §2, §3

[9] = tested on: human pancreatic cancer cells (BxPC3); experiment: MTT tumor cell growth inhibition, BxPC3; assay type: cell-based; details: BXPC-3, 72 hours, relative IC50
From the text: as §1, §2, §3

[10] = tested on: human prostate cancer cells (PC-3); experiment: MTT tumor cell growth inhibition, PC-3; assay type: cell-based; details: PC-3, MTT, 72 hours, relative IC50
From the text: as §1, §2, §3

tumor cells = experiment: MTT tumor cell growth inhibition, summary over the cell line panel; assay type: cell-based; details: ten tumor cell lines of Table 2, MTT, 72 hours; read-out: IC50 of tumor cell proliferation inhibition, span over the tested cell lines
From the text: as §1, §2, §3

[11] = tested on: Human breast cancer cell line MDA-MB-231; experiment: In vivo pharmacodynamic study of compound A, MDA-MB-231 nude mice transplanted tumor model; design: species or system BALB/C nude mice; details: MDA-MB-231 model, q4d, 4x
Description: (§4) Female BALB/C nude mice 6 weeks to 8 weeks old and weighing about 19 g to 29 g were taken (Supplier: Beijing Vital River Laboratory Animal Technology Co., Ltd.) and raised for a week. A human cancer nude mice […] transplanted tumor model was established: Human breast cancer cell line MDA-MB-231 (ATCC® Number: HTB-26™) and human lung cancer cell line NCI-H460 (ATCC® Number: HTB-177™) were incubated. The monolayer tumor cells were digested and detached; then, they were collected and resuspended in a serum-free culture medium, and then were adjusted to a concentration of 2×10^6/0.2 mL. They were put into an iced box and brought to an animal house. A syringe with a No. 6 needle was used to directly take a 0.2 mL cell suspension and transplanted it into the rear subcutaneous scapular regions of the left axillaries of the nude mice at 2×10^6/0.2 mL per mouse. Tumor volumes were measured once every 2 days to 3 days. After two weeks, tumor-bearing nude mice with vigorous tumor growth and no ulceration were selected, the tumors were removed from them under sterile conditions. The tumor tissues were cut to about 2 mm to 3 mm in diameter and inoculated in the rear subcutaneous scapular regions of the left axillaries of the nude mice. After passage for three generations, when the tumor volume grew to 100 mm^3, nude mice with tumor masses that were too large or too small were removed and randomly grouped for administration.
(§5) The mice were randomly divided into five groups, including the negative control group (vehicle), positive control group (Romidepsin, 2.4 mg/kg), treatment group with the high, medium, and low doses of compound A (respectively 7.2 mg/kg, 4.8 mg/kg, 2.4 mg/kg, wherein the high dose was lower than the maximum tolerated dose, MTD); there were six nude mice in each group; intravenous administration was given every 4 days; 4 doses were given. During the period, the weights and tumor volumes of the animals were measured every 2 days, and the number of animal deaths was recorded. 24 hours after the last administration, the animals were sacrificed. The tumor volumes, tumor weights, and body weights of nude mice were measured; tumor volume growth curves, nude mice weight growth curves and tumor inhibition rates, mortality of the animals were plotted; the relative tumor proliferation rate T/C (%) was calculated; according to the formula T/C (%)=TRTV/CRTV*100%. (TRTV: treatment group RTV; CRTV: negative control group RTV, relative tumor volume RTV=Vt/V0, wherein V0 is the tumor volume at the time of administration by group; Vt is the post-administration tumor volume).

[12] = tested on: human lung cancer cell line NCI-H460; experiment: In vivo pharmacodynamic study of compound A, NCI-H460 nude mice transplanted tumor model; design: species or system BALB/C nude mice; details: q4d, 4x
Description: as §4, §5

blood cells = experiment: Effect on blood phase, complete blood count (CBC) analysis; assay type: in vivo, BAB-C mice; details: 0.5 mg/kg; for PLT / RBC / WBC: mean±SD
Description: BAB-C mice (6 to 8 weeks old, a half being males and the other half females, weighing about 18 g-25 g, supplier: Beijing Vital River Laboratory Animal Technology Co., Ltd.) were raised for one week and then divided into three groups: normal control group, Romidepsin group, and compound A group. The normal group was injected with the vehicle; the drug group was injected with 0.5 mg/kg of the drug; 24 hours and 48 hours respectively after administration, a complete blood count (CBC) analysis was performed; for all the data, mean±standard deviation (mean±SD) was adopted; T tests were performed between inter-group data.

MDA-MB-231 breast cancer = experiment: In vivo efficacy study of compound B, xenografted MDA-MB-231 breast cancer; design: species or system BALB/c nude mice; details: once a week for four weeks; for Day 28 tumor volume: mean ± standard error
Description: Female BALB/C nude mice 6 weeks to 8 weeks old and weighing about 19 g to 29 g were taken and raised for one week (supplier: Beijing Vital River Laboratory Animal Technology Co., Ltd.) MDA-MB-231 (ATCC® Number: HTB-26™) breast cancer cells were cultured in vitro; the culture conditions were: 10% fetal bovine serum was added to an L-15 medium, 37° C., and 0% CO2. Passage was performed twice a week. When the cells were in the exponential growth phase, the cells were collected, counted, and inoculated. […] The cells were suspended in phosphate buffered saline (PBS) and Matrigel (1:1) was added. A total of 50 mice were inoculated. […] The experimental indicator was to examine whether the tumor growth was inhibited, delayed, or subsided. Tumor diameter was measured three times a week with a vernier caliper. The formula for calculating tumor volume is as follows: […] The antitumor efficacy of the compound was evaluated with T/C (%) and of TGI. […] T0 indicates the mean tumor volume of the treatment group at the time of administration by cage; Vi indicates the mean tumor volume of the vehicle group on the same day; V0 indicates the mean tumor volume of the vehicle group at the time of administration by cage. At the end of the experiment, the tumors were stripped, weighed, and photographed.

[13] = mice, 24 h after administration
[14] = mice, 48 h after administration

Row | Structure (SMILES) | IC50 [1] | IC50 [2] | IC50 [3] | IC50 [4] | IC50 [5] | IC50 [6] | IC50 [7] | IC50 [8] | IC50 [9] | IC50 [10] | IC50 (tumor cells) | Relative tumor proliferation rates T/C (%) ([11]; 2.4 mg/kg) | Relative tumor proliferation rates T/C (%) ([12]; 2.4 mg/kg) | Day 28 tumor volume (MDA-MB-231 breast cancer; 6.6 mg/kg intravenous) | T/C (%) (MDA-MB-231 breast cancer; day 28, 6.6 mg/kg intravenous) | TGI (%) (MDA-MB-231 breast cancer; day 28, 6.6 mg/kg intravenous) | further results
1 | C/C=C1\NC(=O)[C@H]2C[S+]([O-])SCC/C=C/[C@H](CC(=O)N[C@H](C(C)C)C(=O)N2)OC(=O)[C@H](C(C)C)NC1=O (stereo partly shown) [Compound A] | 9.7 nM | 10.7 nM | 29.3 nM | 33 nM | 22.8 nM | 35.9 nM | 23.2 nM | 10 nM | 13.9 nM | 11.9 nM | 9.7 to 35.9 nM | 45.5%(2.4 mg/kg, q4d, 4x) | 44%(2.4 mg/kg, q4d, 4x) |  |  |  | Relative tumor proliferation rates T/C (%) ([11]; 4.8 mg/kg): 35.4%(4.8 mg/kg, q4d, 4x); Relative tumor proliferation rates T/C (%) ([11]; 7.2 mg/kg): 29.8%(7.2 mg/kg, q4d, 4x); Relative tumor proliferation rates T/C (%) ([12]; 4.8 mg/kg): 38.6%(4.8 mg/kg, q4d, 4x); Relative tumor proliferation rates T/C (%) ([12]; 7.2 mg/kg): 25.2%(7.2 mg/kg, q4d, 4x); PLT compared with the normal group (blood cells; mouse, in vivo): significantly decreased; WBCs compared with the normal group (blood cells; mouse, in vivo): no significant difference compared with the normal group
2 | C/C=C1\NC(=O)[C@H]2CS[S+]([O-])CC/C=C/[C@H](CC(=O)N[C@H](C(C)C)C(=O)N2)OC(=O)[C@H](C(C)C)NC1=O (stereo partly shown) [Compound B] | 2 nM | 3.6 nM | 6.1 nM | 4.8 nM | 5.4 nM | 3.4 nM | 2.6 nM | 4.9 nM | 6.5 nM | 6.1 nM | 2 to 6.5 nM |  |  | 187 ± 29 mm^3 | 4.5% | 95.5% | Day 28 tumor volume (MDA-MB-231 breast cancer; 2.2 mg/kg intravenous): 259 ± 47 mm^3; Day 28 tumor volume (MDA-MB-231 breast cancer; 2.2 mg/kg intravenous, listed as compound B): 259 mm^3; Day 28 tumor volume (MDA-MB-231 breast cancer; 4.4 mg/kg intravenous): 202 ± 38 mm^3; Day 28 tumor volume (MDA-MB-231 breast cancer; 4.4 mg/kg intravenous, listed as compound B): 202 mm^3; Day 28 tumor volume (MDA-MB-231 breast cancer; 6.6 mg/kg intravenous, listed as compound B): 187 mm^3; T/C (%) (MDA-MB-231 breast cancer; day 28, 2.2 mg/kg intravenous): 11.3%; TGI (%) (MDA-MB-231 breast cancer; day 28, 2.2 mg/kg intravenous): 88.7%; T/C (%) (MDA-MB-231 breast cancer; day 28, 4.4 mg/kg intravenous): 5.9%; TGI (%) (MDA-MB-231 breast cancer; day 28, 4.4 mg/kg intravenous): 94.1%
3 | C/C=C1\NC(=O)[C@H]2CSSCC/C=C/[C@H](CC(=O)N[C@H](C(C)C)C(=O)N2)OC(=O)[C@H](C(C)C)NC1=O [Romidepsin, reference compound] | 3.6 nM | 5.2 nM | 6.5 nM | 6.8 nM | 7.2 nM | 8.6 nM | 4.1 nM | 6.4 nM | 8.7 nM | 7.1 nM | 3.6 to 8.7 nM | 48.9%(2.4 mg/kg, q4d, 4x) | 42.2%(2.4 mg/kg, q4d, 4x) | 260 mm^3 and 260 ± 103 mm^3 | 11.4% | 88.6% | PLT (blood cells; [13]): 600.56 ± 71.51** 1 × 10*9/L; RBC (blood cells; [13]): 10.30 ± 0.47 1 × 10*12/L; WBC (blood cells; [13]): 4.32 ± 2.61** 1 × 10*9/L; PLT (blood cells; [14]): 431.31 ± 64.96** 1 × 10*9/L; RBC (blood cells; [14]): 10.23 ± 0.78 1 × 10*12/L; WBC (blood cells; [14]): 6.92 ± 3.29** 1 × 10*9/L; WBC count decrease (blood cells; mice, at 24 h, vs normal group): 75%; PLT compared with the normal group (blood cells; mice, at 24 h and 48 h): significantly decreased; WBC count restored to percent of the normal group (blood cells; mice, at 48 h): 40%
